Measurements reported in patent US20220315621A1, “COMPOSITIONS AND METHODS FOR TREATING CNS DISORDERS” (priority 2017, published 2022).

Key:
[1] = biological target: GABAA receptor (rat brain cortical membranes, [35S]-TBPS binding); settings: Table I-4; rat brain cortical membranes, 3 nM [35S]-TBPS, in the presence of 5 mM GABA
TBPS binding = assay: Steroid inhibition of TBPS binding; settings: Table II-2; read-out: TBPS IC50 (μm)

Structure (SMILES)	IC50 [1] [nM]	IC50 (TBPS binding) [nM]
C[C@@]1(O)CC[C@H]2[C@H](CC[C@@H]3[C@@H]2CC[C@]2(C)C[C@H](C(=O)Cn4cc(C#N)cn4)CC[C@@H]32)C1 [I-R17a, 1-(2-((2R,4aS,4bR,6aR,8R,10aS,10bR,12aR)-8-hydroxy-8,12a-dimethyloctadecahydrochrysen-2-yl)-2-oxoethyl)-1H-pyrazole-4-carbonitrile]	1000 to 10000	
C[C@@]1(O)CC[C@H]2[C@H](CC[C@@H]3[C@@H]2CC[C@]2(C)C[C@@H](C(=O)c4ccccc4)CC[C@@H]32)C1 [I-R21, ((2S,4aS,4bR,6aR,8R,10aS,10bR,12aR)-8-hydroxy-8,12a-dimethyloctadecahydrochrysen-2-yl)(phenyl)methanone]	100 to 1000	
CCOC[C@@]1(O)CC[C@H]2[C@@H](CC[C@@H]3[C@@H]2CC[C@]2(C)[C@@H](C(C)=O)CCC[C@@H]32)C1 [I-S3, 1-((1S,4aS,4bR,6aS,8R,10aS,10bR,12aS)-8-(ethoxymethyl)-8-hydroxy-12a-methyloctadecahydrochrysen-1-yl)ethan-1-one]	100 to 1000	
CC(=O)[C@H]1CC[C@H]2[C@@H]3CC[C@H]4C[C@H](O)CCC[C@]4(C)[C@H]3CC[C@]12C [II-B5, 1-((1S,3aS,3bR,5aS,7R,10aS,10bS,12aS)-7-hydroxy-10a,12a-dimethyloctadecahydrocyclohepta[a]cyclopenta[f]naphthalen-1-yl)ethan-1-one]		100 to 1000
CC(=O)[C@H]1CC[C@H]2[C@@H]3CC=C4CC[C@](C)(O)CC[C@]4(C)[C@H]3CC[C@]12C [II-C2a, 1-((1S,3aS,3bS,8S,10aR,10bS,12aS)-8-hydroxy-8,10a,12a-trimethyl-1,2,3,3a,3b,4,6,7,8,9,10,10a,10b,11,12,12a-hexadecahydrocyclohepta[a]cyclopenta[f]naphthalen-1-yl)ethan-1-one]		10 to 100
CC(=O)[C@H]1CC[C@H]2[C@@H]3CC=C4CC[C@@](C)(O)CC[C@]4(C)[C@H]3CC[C@]12C [II-C2b, 1-((1S,3aS,3bS,8R,10aR,10bS,12aS)-8-hydroxy-8,10a,12a-trimethyl-1,2,3,3a,3b,4,6,7,8,9,10,10a,10b,11,12,12a-hexadecahydrocyclohepta[a]cyclopenta[f]naphthalen-1-yl)ethan-1-one]		1000 to 10000
CC(=O)[C@H]1CC[C@H]2[C@@H]3CC[C@H]4CC[C@](C)(O)CC[C@]4(C)[C@H]3CC[C@]12C [II-C3, 1-((1S,3aS,3bR,5aS,8S,10aS,10bS,12aS)-8-hydroxy-8,10a,12a-trimethyloctadecahydrocyclohepta[a]cyclopenta[f]naphthalen-1-yl)ethan-1-one]		10 to 100
C[C@@]1(O)CC[C@@H]2CC[C@@H]3[C@H](CC[C@]4(C)[C@@H](C(=O)Cn5cc(C#N)cn5)CC[C@@H]34)[C@@]2(C)CC1 [II-C8, 1-(2-((1S,3aS,3bR,5aS,8R,10aS,10bS,12aS)-8-hydroxy-8,10a,12a-trimethyloctadecahydrocyclohepta[a]cyclopenta[f]naphthalen-1-yl)-2-oxoethyl)-1H-pyrazole-4-carbonitrile]		100 to 1000
Cc1nnnn1CC(=O)[C@H]1CC[C@H]2[C@@H]3CC[C@H]4CC[C@](C)(O)CC[C@]4(C)[C@H]3CC[C@]12C [II-C10, 1-((1S,3aS,3bR,5aS,8S,10aS,10bS,12aS)-8-hydroxy-8,10a,12a-trimethyloctadecahydrocyclohepta[a]cyclopenta[f]naphthalen-1-yl)-2-(5-methyl-1H-tetrazol-1-yl)ethan-1-one]		100 to 1000
Cc1nnn(CC(=O)[C@H]2CC[C@H]3[C@@H]4CC[C@H]5CC[C@](C)(O)CC[C@]5(C)[C@H]4CC[C@]23C)n1 [II-C11, 1-((1S,3aS,3bR,5aS,8S,10aS,10bS,12aS)-8-hydroxy-8,10a,12a-trimethyloctadecahydrocyclohepta[a]cyclopenta[f]naphthalen-1-yl)-2-(5-methyl-2H-tetrazol-2-yl)ethan-1-one]		10 to 100
CC(=O)[C@H]1CC[C@H]2[C@@H]3CC=C4C[C@](C)(O)CCC[C@]4(C)[C@H]3CC[C@]12C [II-D2a, 1-((1S,3aS,3bS,7R,10aR,10bS,12aS)-7-hydroxy-7,10a,12a-trimethyl-1,2,3,3a,3b,4,6,7,8,9,10,10a,10b,11,12,12a-hexadecahydrocyclohepta[a]cyclopenta[f]naphthalen-1-yl)ethan-1-one]		1000 to 10000
CC(=O)[C@H]1CC[C@H]2[C@@H]3CC[C@H]4C[C@](C)(O)CCC[C@]4(C)[C@H]3CC[C@]12C [II-D3a, 1-((1S,3aS,3bR,5aS,7R,10aS,10bS,12aS)-7-hydroxy-7,10a,12a-trimethyloctadecahydrocyclohepta[a]cyclopenta[f]naphthalen-1-yl)ethan-1-one]		1000 to 10000
C[C@@]1(O)CCC[C@@]2(C)[C@@H](CC[C@@H]3[C@@H]2CC[C@]2(C)[C@@H](C(=O)Cn4cc(C#N)cn4)CC[C@@H]32)C1 [II-D5a, 1-(2-((1S,3aS,3bR,5aS,7R,10aS,10bS,12aS)-7-hydroxy-7,10a,12a-trimethyloctadecahydrocyclohepta[a]cyclopenta[f]naphthalen-1-yl)-2-oxoethyl)-1H-pyrazole-4-carbonitrile]		10 to 100
C[C@]1(O)CCC[C@@]2(C)[C@@H](CC[C@@H]3[C@@H]2CC[C@]2(C)[C@@H](C(=O)Cn4cc(C#N)cn4)CC[C@@H]32)C1 [II-D5b, 1-(2-((1S,3aS,3bR,5aS,7S,10aS,10bS,12aS)-7-hydroxy-7,10a,12a-trimethyloctadecahydrocyclohepta[a]cyclopenta[f]naphthalen-1-yl)-2-oxoethyl)-1H-pyrazole-4-carbonitrile]		100 to 1000
CC(=O)[C@H]1CC[C@H]2[C@@H]3CC[C@@H]4CCC(=O)CC[C@@H]4[C@H]3CC[C@]12C [II-E7a, (1S,3aS,3bR,5aR,10aS,10bR,12aS)-1-acetyl-12a-methylhexadecahydrocyclohepta[a]cyclopenta[f]naphthalen-8(1H)-one]		1000 to 10000
CC(=O)[C@H]1CC[C@H]2[C@@H]3CC[C@@H]4CC(=O)CCC[C@@H]4[C@H]3CC[C@]12C [II-E7b, (1 S,3aS,3bR,5aR,10aS,10bR,12aS)-1-acetyl-12a-methylhexadecahydrocyclohepta[a]cyclopenta[f]naphthalen-7(1H)-one]		1000 to 10000
CC(=O)[C@H]1CC[C@H]2[C@@H]3CC[C@@H]4C[C@](C)(O)CCC[C@@H]4[C@H]3CC[C@]12C [II-E8a, 1-((1S,3aS,3bR,5aR,7R,10aS,10bR,12aS)-7-hydroxy-7,12a-dimethyloctadecahydrocyclohepta[a]cyclopenta[f]naphthalen-1-yl)ethan-1-one]		10 to 100
C[C@]1(O)CCC[C@H]2[C@H](CC[C@@H]3[C@@H]2CC[C@]2(C)[C@@H](C(=O)Cn4cc(C#N)cn4)CC[C@@H]32)C1 [II-E10, 1-(2-((1S,3aS,3bR,5aR,7S,10aS,10bR,12aS)-7-hydroxy-7,12a-dimethyloctadecahydrocyclohepta[a]cyclopenta[f]naphthalen-1-yl)-2-oxoethyl)-1H-pyrazole-4-carbonitrile]		100 to 1000
